Assay results from US6090787A, “Antithrombotic agents” (Eli Lilly and Company, priority 1999, dated 2000).
Square brackets hold non-standard residues; d marks the D form. Peptide text beside a SMILES is read from it. dPip = O=C(O)[C@H]1CCCCN1; Sar = CNCC(=O)O

Tests used:
factor Xa = target: T1, factor Xa (Homo sapiens, UniProt P00742); assay: Serine protease selectivity, Kass, factor Xa chromogenic assay; format: biochemical; details: apparent association constant
T1 construct: Human factors X, Xa, IXa, XIa, and XIIa are purchased from Enzyme Research Laboratories; purchased Enzyme Research Laboratories, South Bend, Ind
T1 sequence (P00742 235-488 limits assumed): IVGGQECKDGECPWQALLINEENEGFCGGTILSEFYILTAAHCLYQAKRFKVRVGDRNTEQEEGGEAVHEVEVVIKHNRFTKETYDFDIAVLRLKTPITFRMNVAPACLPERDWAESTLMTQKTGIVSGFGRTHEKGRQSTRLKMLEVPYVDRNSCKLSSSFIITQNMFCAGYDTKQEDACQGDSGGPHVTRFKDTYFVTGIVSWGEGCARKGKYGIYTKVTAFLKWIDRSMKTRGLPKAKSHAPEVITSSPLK
T1 sequence (P00742 41-179 partner limits assumed): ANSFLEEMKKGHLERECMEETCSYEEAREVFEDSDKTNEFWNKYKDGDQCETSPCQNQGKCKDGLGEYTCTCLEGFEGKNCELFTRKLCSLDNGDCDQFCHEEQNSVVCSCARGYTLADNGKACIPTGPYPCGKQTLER
Description: (§1) By substantially following the procedures described above for human thrombin, and using other human blood coagulation system serine proteases and proteases of the fibrinolytic system with the appropriate chromogenic substrates, identified below, selectivity of the compounds of the present invention with respect to the coagulation factor serine proteases and with respect to the fibrinolytic system serine proteases are evaluated as well as their substantial lack of interference with serine proteases of the fibrinolytic system. Thrombin inhibitors preferably should spare fibrinolysis induced by urokinase, tissue plasminogen activator (t-PA) and streptokinase. This would be important to the therapeutic use of such agents as an adjunct to streptokinase, t-PA or urokinase thrombolytic therapy and to the use of such agents as an endogenous fibrinolysis-sparing (with respect to t-PA and urokinase) antithrombotic agent. In addition to the lack of interference with the amidase activity of the fibrinolytic proteases, such fibrinolytic system sparing can be studied by the use of human plasma clots and their lysis by the respective fibrinolytic plasminogen activators.
(§2) Human factors X, Xa, IXa, XIa, and XIIa are purchased from Enzyme Research Laboratories, South Bend, Ind.; human urokinase from Leo Pharmaceuticals, Denmark; and recombinant activated Protein C (aPC) is prepared at Eli Lilly and Co. substantially according to U.S. Pat. No. 4,981,952 incorporated by reference herein in its entirety. Chromogenic substrates: N--Benzoyl--Ile--Glu--Gly--Arg--p--nitroanilide (for factor Xa); N--Cbz--D--Arg--Gly--Arg--p--nitroanilide (for factor IXa assay as the factor Xa substrate); Pyroglutamyl--Pro--Arg--p--nitroanilide (for Factor XIa and for aPC); H--D--Pro--Phe--Arg--p--nitroanilide (for factor XIIa); and Pyroglutamyl--Gly--Arg--p--nitroanilide (for urokinase); are purchased from KabiVitrum, Stockholm, Sweden, or from Midwest Biotech, Fishers, Indiana. Bovine trypsin is purchased from Worthington Biochemicals, Freehold, N.J., and human plasma kallikrein from Kabi Vitrum, Stockholm, Sweden. Chromogenic substrate H--D--Pro--Phe--Arg--p--nitroanilide for plasma kallikrein is purchased from Kabi Vitrum, Stockholm, Sweden. N--Benzoyl--Phe--Val--Arg--p--nitroanilide, the substrate for human thrombin and for trypsin, is synthesized according to procedures described above for the compounds of the present invention, using known methods of peptide coupling from commercially available reactants or purchased from Midwest Biotech, Fishers, Ind.

Bovine trypsin = target: T2, Bovine trypsin (Bos taurus, UniProt P00760); assay: Serine protease selectivity, Kass, trypsin chromogenic assay; format: biochemical; details: apparent association constant
T2 construct: purchased Worthington Biochemicals, Freehold, N.J
T2 sequence (P00760 24-246): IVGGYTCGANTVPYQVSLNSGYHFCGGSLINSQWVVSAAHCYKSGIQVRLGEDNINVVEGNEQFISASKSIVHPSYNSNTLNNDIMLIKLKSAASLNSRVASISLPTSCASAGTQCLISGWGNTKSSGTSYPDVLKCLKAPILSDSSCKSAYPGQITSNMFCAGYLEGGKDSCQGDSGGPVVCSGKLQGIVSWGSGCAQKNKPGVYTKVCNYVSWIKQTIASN
Description: as §1, §2

human plasma [1] = assay: Human plasma anticoagulation, thrombin time (TT); details: concentration required to double the thrombin time, linear extrapolation
Description: (§3) Dog plasma and rat plasma is obtained from conscious mixed-breed hounds (either sex, Hazelton-LRE, Kalamazoo, Mich., U.S.A.) or from anesthetized male Sprague-Dawley rats (Harlan Sprague-Dawley, Inc., Indianapolis, Ind., U.S.A.) by venipuncture into 3.8 percent citrate. Fibrinogen is prepared from in-date ACD human blood as the fraction I-2 according to previous procedures and specifications. Smith, Biochem. J., 185, 1-11 (1980); and Smith, et al., Biochemistry, 11, 2958-2967 (1972). Human fibrinogen is also purchased as 98 percent pure/plasmin free from American Diagnostica, Greenwich, Conn. Coagulation reagents ACTIN, Thromboplastin, and Human plasma are from Baxter Healthcare Corp., Dade Division, Miami, Fla. Bovine thrombin from Parke-Davis ([…], Mich.) is used for coagulation assays in plasma.
(§4) Coagulation assay procedures are as previously described. Smith, et al., Thrombosis Research, 50, 163-174 (1988). A CoAScreener coagulation instrument (American LABor, Inc.) is used for all coagulation assay measurements. The prothrombin time (PT) is measured by adding 0.05 mL saline and 0.05 mL Thromboplastin-C reagent to 0.05 mL test plasma. The activated partial thromboplastin time (APTT) is measured by incubation of 0.05 mL test plasma with 0.05 mL Actin reagent for 120 seconds followed by 0.05 mL CaCl2 (0.02 M). The thrombin time (TT) is measured by adding 0.05 mL saline and 0.05 mL thrombin (10 NIH units/mL) to 0.05 mL test plasma. The compounds of formula I are added to human or animal plasma over a wide range of concentrations to determine prolongation effects on the APTT, PT, and TT assays. Linear extrapolations are performed to estimate the concentrations required to double the clotting time for each assay.

human plasma [2] = assay: Human plasma anticoagulation, prothrombin time (PT); details: concentration required to double the PT, linear extrapolation
Description: as §3, §4

[3] = Index of bioavailability (% Relative Activity from plasma TT AUC, oral vs i.v.); format: in vivo; details: dose-adjusted AUC of plasma TT time course, p.o. vs i.v. bolus
Description: Plasma thrombin time (TT) and activated partial thromboplastin time (APTT) are measured with a fibrometer. Blood is sampled from a jugular catheter and collected in syringe containing sodium citrate (3.8%, 1 part to 9 parts blood). […] Parke Davis) at 37° C. For APTT, plasma (0.1 mL) and APTT solution (0.1 mL, Organon Teknika) are incubated for 5 minutes (37° C.) and CaCl2 (0.01 mL, 0.025 M) is added to start coagulation. Assays are done in duplicate and averaged. A measure of bioactivity, plasma thrombin time (TT), served as a substitute for the assay of parent compound on the assumption that increments in TT resulted from thrombin inhibition by parent only. The time course of the effect of the thrombin inhibitor upon TT is determined after i.v. bolus administration to anesthetized rats and after oral treatment of fasted conscious rats. Due to limitations of blood volume and the number of points required to determine the time course from time of treatment to the time when the response returned to pretreatment values, two populations of rats are used. Each sample population represented alternating sequential time points. The average TT over the time course is used to calculate area under the curve (AUC). The index of bioavailability is calculated by the formula shown below and is expressed as percent relative activity. The area under the curve (AUC) of the plasma TT time course is determined and adjusted for the dose. This index of bioavailability is termed "% Relative Activity" and is calculated as [formula] Compound solutions are prepared fresh daily in normal saline and are injected as a bolus or are infused starting 15 minutes before and continuing throughout the experimental perturbation which is 15 minutes in the arteriovenous shunt model and 60 minutes in the FeCl3 model of arterial injury and in the spontaneous thombosis model. Bolus injection volume is 1 mL/kg for i.v., and 5 mL/kg for p.o. and infusion volume is 3 mL/hr.

| Enzyme Kass Xa (factor Xa) | Enzyme Kass Trypsin (Bovine trypsin) | % oral/i.v. activity (Rat) [3] | Structure (SMILES) | Human Plasma Anticoagulation 2 × Clotting time TT (human plasma [1]) | Human Plasma Anticoagulation 2 × Clotting time PT (human plasma [2]) |
| --- | --- | --- | --- | --- | --- |
| 0.13 L/mol × 10^6 | 0.88 L/mol × 10^6 | 37% | CN(CC(=O)N[C@H](C=O)CCCNC(=N)N)C(=O)[C@H]1CCCCN1.Cl.Cl [Example 1, D-homoprolyl-N-methylglycyl-L-argininal dihydrochloride] (H-[dPip]-[Sar]-Arg-aldehyde) | 160 ng/mL | 4,800 ng/mL |
| 4.4 L/mol × 10^6 | 2.7 L/mol × 10^6 | 17% | Cl.Cl.N=C(N)NCCC[C@@H](C=O)NC(=O)CN(CCc1ccccc1)C(=O)[C@H]1CCCCN1 [Example 8, D-homoprolyl-N-(2-phenylethyl)glycyl-L-argininal dihydrochloride] | 64 ng/mL | 2,000 ng/mL |

| Structure (SMILES) | Enzyme Kass Xa (factor Xa) | Enzyme Kass Trypsin (Bovine trypsin) | % oral/i.v. activity (Rat) [3] | Human Plasma Anticoagulation 2 × Clotting time TT (human plasma [1]) | Human Plasma Anticoagulation 2 × Clotting time PT (human plasma [2]) |
| --- | --- | --- | --- | --- | --- |
| CC(C)CCN(CC(=O)N[C@H](C=O)CCCN=C(N)N)C(=O)[C@H]1CCCCN1.Cl.Cl [Example 6, D--hPro--N(isoamyl)Gly--ArgH.2HCl] | 0.071 L/mol × 10^6 | 5.9 L/mol × 10^6 | 22% | 170 ng/mL | 2,600 ng/mL |
